Where a SMILES comes first, the peptide text is derived from it. Bridges are numbered along the chain shown (N, C = ends). [ ]: non-standard residue; d: D form. The star is where a group is joined. ξ: configuration not given here. Bip(4'-COOH) = N[C@@H](Cc1ccc(-c2ccc(C(=O)O)cc2)cc1)C(=O)O; Phe(3-CF3) = N[C@@H](Cc1cccc(C(F)(F)F)c1)C(=O)O; Ala(morpholin-4-yl) = N[C@@H](CN1CCOCC1)C(=O)O; Phe(4-COOH) = N[C@@H](Cc1ccc(C(=O)O)cc1)C(=O)O; Bip = N[C@@H](Cc1ccc(-c2ccccc2)cc1)C(=O)O; Phe(3-Me) = Cc1cccc(C[C@H](N)C(=O)O)c1; aIle = CC[C@@H](C)[C@H](N)C(=O)O; 4Pal = N[C@@H](Cc1ccncc1)C(=O)O; 2Thi = N[C@@H](Cc1cccs1)C(=O)O; Cha = N[C@@H](CC1CCCCC1)C(=O)O; Cit = NC(=O)NCCC[C@H](N)C(=O)O; NMeN = CN[C@@H](CC(N)=O)C(=O)O; dCha = N[C@H](CC1CCCCC1)C(=O)O; Thr(3ξ) = CC(O)[C@H](N)C(=O)O; Carboxymethyl = O=C(O)C*; Nle = CCCC[C@H](N)C(=O)O; Orn = NCCC[C@H](N)C(=O)O; Pra = C#CC[C@H](N)C(=O)O; Dab = NCC[C@H](N)C(=O)O; Dap = NC[C@H](N)C(=O)O; Propargyl = C#CC*

Our source for the IC50 values is patent US20250163104A1, “MACROCYCLIC IMMUNOMODULATORS” (priority 2021, published 2025).

The experiment concerns the target T1, human PD-1 / PD-L1-Ig binding on Jurkat cell line over-expressing human PD-1 (Jurkat-PD-1) (Homo sapiens, UniProt Q15116).
T1 construct: expressed in transfected cells; host or cells: Jurkat
Briefly: Jurkat-PD-1 Cell Binding High-Content Screening Assay (CBA). Format: cell-based. The conditions noted are these: Jurkat-PD-1 cells, PE-labeled PD-L1-Ig 20 nM final; read-out: Jurkat HPD1_PDL1 IC50. The procedure, abridged: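 Binding of fluorescent PD-L1-Ig (phycoerythrin linked via the Ig tag, 20 nM final) to PD-1-overexpressing Jurkat cells was imaged after a 2 h, 37° C compound pretreatment and 1 hour ligand incubation.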

T1 sequence (Q15116 25-288): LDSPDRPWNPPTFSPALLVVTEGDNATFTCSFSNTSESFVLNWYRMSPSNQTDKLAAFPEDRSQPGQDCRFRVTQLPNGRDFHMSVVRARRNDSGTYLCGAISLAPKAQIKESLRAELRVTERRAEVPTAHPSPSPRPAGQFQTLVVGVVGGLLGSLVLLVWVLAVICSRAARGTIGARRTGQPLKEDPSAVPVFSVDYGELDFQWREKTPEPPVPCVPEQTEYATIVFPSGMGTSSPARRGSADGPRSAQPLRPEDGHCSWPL

For orientation: IC50 means the concentration at which inhibition is half-maximal. For `CCC(C)[C@@H]1NC(=O)[C@H](Cc2ccc(-c3ccccc3)cc2)NC(=O)[C@H](C(C)C)NC(=O)[C@H](Cc2cccc(C)c2)NC(=O)[C@H](CC(=O)O)NC(=O)[C@H](Cc2ccc(OCC(=O)O)cc2)NC(=O)[C@H](Cc2ccncc2)NC(=O)CSC[C@@H](C(=O)N[C@@H](C)C(N)=O)NC(=O)[C@H](CO)NC(=O)[C@H](C(C)C)NC(=O)[C@H](CC2CCCCC2)NC(=O)[C@H](CCN)NC(=O)[C@@H](CC(C)C)NC(=O)[C@H](CCCN)NC1=O` (some centres unmarked) [Compound 2535], the IC50 was found to be 38 nM.
The same measure for `C#CCOc1ccc(C[C@@H]2NC(=O)[C@H](Cc3cccc(C)c3)NC(=O)[C@H](CC(=O)O)NC(=O)[C@H](Cc3ccc(OCC(=O)O)cc3)NC(=O)[C@H](CCCC)NC(=O)CSC[C@@H](C(=O)N[C@@H](CCN)C(N)=O)NC(=O)[C@H](CCC(=O)O)NC(=O)[C@H](C(C)C)NC(=O)[C@H](CC3CCCCC3)NC(=O)[C@H](CCN)NC(=O)[C@@H](CC(C)C)NC(=O)[C@H](CCCN)NC(=O)[C@H](Cc3ccc(OCC(=O)O)cc3)NC(=O)[C@H](Cc3ccc(-c4ccccc4)cc3)NC2=O)cc1` [Compound 1833] ({CH2CO}-[Nle]Y(Carboxymethyl)D[Phe(3-Me)]Y(Propargyl)[Bip]Y(Carboxymethyl)[Orn][dL][Dab][Cha]VEC[Dab]-NH2; thioether N-14): 1.5 nM.
As for `CCCC[C@@H]1NC(=O)CSC[C@@H](C(=O)N[C@@H](CCN)C(N)=O)NC(=O)[C@H](CCC(=O)O)NC(=O)[C@H](C(C)C)NC(=O)[C@H](CC2CCCCC2)NC(=O)[C@H](CCN)NC(=O)[C@@H](CC(C)C)NC(=O)[C@H](CCCN)NC(=O)[C@H](Cc2ccc(C(=O)O)cc2)NC(=O)[C@H](Cc2ccc(-c3ccccc3)cc2)NC(=O)[C@H](Cc2ccc(C(=O)O)cc2)NC(=O)[C@H](Cc2cccc(C)c2)NC(=O)[C@H](CC(N)=O)NC(=O)[C@H](Cc2ccc(OCC(=O)O)cc2)NC1=O` [Example 2723] ({CH2CO}-[Nle]Y(Carboxymethyl)N[Phe(3-Me)][Phe(4-COOH)][Bip][Phe(4-COOH)][Orn][dL][Dab][Cha]VEC[Dab]-NH2; thioether N-14), the IC50 came out at 200 nM.
For the compound `CC(C)C[C@@H]1NC(=O)[C@H](Cc2c[nH]c3ccccc23)NC(=O)[C@H](CC(=O)O)NC(=O)[C@H](Cc2ccncc2)NC(=O)[C@H](CN)NC(=O)CSC[C@@H](C(=O)NCC(N)=O)NC(=O)[C@H](CO)NC(=O)[C@H](C(C)C)NC(=O)[C@H](CC(C)C)NC(=O)[C@H](CC(N)=O)NC(=O)[C@@H](CC(C)C)NC(=O)[C@H](CN)NC(=O)[C@H](C(C)C)NC(=O)[C@H](Cc2ccc(-c3ccccc3)cc2)NC1=O` [Compound 1277] ({CH2CO}-[Dap][4Pal]DWL[Bip]V[Dap][dL]NLVSCG-NH2; thioether N-14), the IC50 was found to be 8.6 nM.
Next, `CC(C)C[C@@H]1NC(=O)[C@H](Cc2c[nH]c3ccccc23)NC(=O)[C@H](CC(=O)O)NC(=O)[C@H](Cc2ccc(OCC(=O)O)cc2)NC(=O)[C@H](C(C)O)NC(=O)CSC[C@@H](C(N)=O)NC(=O)[C@H](CO)NC(=O)[C@H](C(C)C)NC(=O)[C@H](CC2CCCCC2)NC(=O)[C@H](CCC(=O)O)NC(=O)[C@@H](CC(C)C)NC(=O)[C@H](Cc2cnc[nH]2)NC(=O)[C@H](C(C)C)NC(=O)[C@H](Cc2ccc(-c3ccccc3)cc2)NC1=O` (stereo partly drawn) [Compound 2608] ({CH2CO}-[Thr(3ξ)]Y(Carboxymethyl)DWL[Bip]VH[dL]E[Cha]VSC-NH2; thioether N-14): 118 nM; `CC(C)C[C@H]1NC(=O)[C@H](CCCN)NC(=O)[C@H](CCC(=O)O)NC(=O)[C@H](Cc2ccc(-c3ccccc3)cc2)NC(=O)[C@H](C(C)C)NC(=O)[C@H](Cc2cccs2)NC(=O)[C@H](CC(=O)O)NC(=O)[C@H](Cc2cccs2)NC(=O)[C@H](Cc2ccc(OCC(=O)O)cc2)NC(=O)CSC[C@@H](C(=O)N[C@@H](C)C(N)=O)NC(=O)[C@H]([C@@H](C)O)NC(=O)[C@H](C(C)C)NC(=O)[C@H](CC2CCCCC2)NC(=O)[C@H](CCN)NC1=O` [Compound 2206] ({CH2CO}-Y(Carboxymethyl)[2Thi]D[2Thi]V[Bip]E[Orn][dL][Dab][Cha]VTCA-NH2; thioether N-14): 14.6 nM; `CC[C@@H](C)[C@@H]1NC(=O)[C@H](Cc2ccc(-c3ccccc3)cc2)NC(=O)[C@H](C(C)C)NC(=O)[C@H](Cc2c[nH]c3ccccc23)NC(=O)[C@H](CC(=O)O)NC(=O)[C@H](Cc2ccncc2)NC(=O)[C@H](Cc2ccc(OCC(=O)O)cc2)NC(=O)CSC[C@@H](C(=O)N[C@@H](C)C(N)=O)NC(=O)[C@H]([C@@H](C)O)NC(=O)[C@H](C(C)C)NC(=O)[C@H](CC2CCCCC2)NC(=O)[C@H](CCN)NC(=O)[C@@H](CC2CCCCC2)NC(=O)[C@H](CCCN)NC1=O` [Compound 1629] ({CH2CO}-Y(Carboxymethyl)[4Pal]DWV[Bip][aIle][Orn][dCha][Dab][Cha]VTCA-NH2; thioether N-14): 19.9 nM.
Next, `CC[C@@H](C)[C@@H]1NC(=O)[C@H](Cc2ccc(-c3ccccc3)cc2)NC(=O)[C@H](C(C)C)NC(=O)[C@H](Cc2cccc(C)c2)NC(=O)[C@H](CC(=O)O)NC(=O)[C@H](Cc2ccc(C(=O)O)cc2)NC(=O)[C@H](Cc2ccncc2)NC(=O)CSC[C@@H](C(=O)N[C@@H](C)C(N)=O)NC(=O)[C@H]([C@@H](C)O)NC(=O)[C@H](C(C)C)NC(=O)[C@H](CC2CCCCC2)NC(=O)[C@H](CCN)NC(=O)[C@@H](CC(C)C)NC(=O)[C@H](CCCN)NC1=O` [Compound 1620]: 5 nM; `C#CC[C@H](NC(=O)CNC(=O)[C@@H]1CSCC(=O)N[C@@H](CN)C(=O)N[C@@H](Cc2ccc(OCC(=O)O)cc2)C(=O)N[C@@H](CC(=O)O)C(=O)N[C@@H](Cc2cccc(C)c2)C(=O)N[C@@H](C(C)C)C(=O)N[C@@H](Cc2ccc(-c3ccccc3)cc2)C(=O)N[C@@H](CCCNC(N)=O)C(=O)N[C@@H](CCCN)C(=O)N[C@H](CC(C)C)C(=O)N[C@@H](CCN)C(=O)N[C@@H](CC2CCCCC2)C(=O)N[C@@H](C(C)C)C(=O)N[C@@H]([C@@H](C)O)C(=O)N1)C(=O)O` [Compound 2260] ({CH2CO}-[Dap]Y(Carboxymethyl)D[Phe(3-Me)]V[Bip][Cit][Orn][dL][Dab][Cha]VTCG[Pra]-OH; thioether N-14): 28.1 nM.
Next, `Cc1cccc(C[C@@H]2NC(=O)[C@H](CC(=O)O)NC(=O)[C@H](Cc3ccc(OCC(=O)O)cc3)NC(=O)[C@H](CN)NC(=O)CSC[C@@H](C(=O)N[C@@H](CCN)C(N)=O)NC(=O)[C@H]([C@@H](C)O)NC(=O)[C@H](C(C)C)NC(=O)[C@H](CC3CCCCC3)NC(=O)[C@H](CCN)NC(=O)[C@@H](CC(C)C)NC(=O)[C@H](CCCN)NC(=O)[C@H](CCCNC(N)=O)NC(=O)[C@H](Cc3ccc(-c4ccccc4)cc3)NC(=O)[C@H](C(C)C)NC2=O)c1` [Compound 2010] ({CH2CO}-[Dap]Y(Carboxymethyl)D[Phe(3-Me)]V[Bip][Cit][Orn][dL][Dab][Cha]VTC[Dab]-NH2; thioether N-14): 10.3 nM; `CC(C)C[C@H]1NC(=O)[C@H](CCCN)NC(=O)[C@H](Cc2ccc(C(=O)O)cc2)NC(=O)[C@H](Cc2ccc(-c3ccccc3)cc2)NC(=O)[C@H](Cc2ccc(-c3ccc(C(=O)O)cc3)cc2)NC(=O)[C@H](Cc2cccc(C(F)(F)F)c2)NC(=O)[C@H](CC(=O)O)NC(=O)[C@H](Cc2ccc(C(=O)O)cc2)NC(=O)[C@H](CN2CCOCC2)NC(=O)CSC[C@@H](C(=O)N[C@@H](CCN)C(N)=O)NC(=O)[C@H](CCC(=O)O)NC(=O)[C@H](C(C)C)NC(=O)[C@H](CC2CCCCC2)NC(=O)[C@H](CCN)NC1=O` [Example 2735] ({CH2CO}-[Ala(morpholin-4-yl)][Phe(4-COOH)]D[Phe(3-CF3)][Bip(4'-COOH)][Bip][Phe(4-COOH)][Orn][dL][Dab][Cha]VEC[Dab]-NH2; thioether N-14): 2.2 nM.
As to `C#CCOc1ccc(C[C@@H]2NC(=O)CSC[C@@H](C(=O)N[C@@H](CCN)C(N)=O)NC(=O)[C@H](CCC(=O)O)NC(=O)[C@H](C(C)C)NC(=O)[C@H](CC3CCCCC3)NC(=O)[C@H](CCN)NC(=O)[C@@H](CC(C)C)NC(=O)[C@H](CCCN)NC(=O)[C@H](Cc3ccc(OCC(=O)O)cc3)NC(=O)[C@H](Cc3ccc(-c4ccccc4)cc3)NC(=O)[C@H](Cc3ccc(OCC(=O)O)cc3)NC(=O)[C@H](Cc3cccc(C)c3)NC(=O)[C@H](CC(=O)O)NC(=O)[C@H](Cc3ccc(OCC(=O)O)cc3)NC2=O)cc1` [Compound 1817] ({CH2CO}-Y(Propargyl)Y(Carboxymethyl)D[Phe(3-Me)]Y(Carboxymethyl)[Bip]Y(Carboxymethyl)[Orn][dL][Dab][Cha]VEC[Dab]-NH2; thioether N-14), the IC50 is 3.6 nM.
For `C#CC[C@H](NC(=O)[C@H](C)NC(=O)[C@@H]1CSCC(=O)N[C@@H](CN)C(=O)N[C@@H](Cc2ccc(OCC(=O)O)cc2)C(=O)N[C@@H](CC(=O)O)C(=O)N[C@@H](Cc2cccc(C)c2)C(=O)N[C@@H](C(C)C)C(=O)N[C@@H](Cc2ccc(-c3ccccc3)cc2)C(=O)N[C@@H](CCCNC(N)=O)C(=O)N[C@@H](CCCN)C(=O)N[C@H](CC(C)C)C(=O)N[C@@H](CCN)C(=O)N[C@@H](CC2CCCCC2)C(=O)N[C@@H](C(C)C)C(=O)N[C@@H]([C@@H](C)O)C(=O)N1)C(=O)O` [Compound 2259], the IC50 came out at 44.3 nM.
Take `CC(C)C[C@H]1NC(=O)[C@H](CCCN)NC(=O)[C@H](C(C)C)NC(=O)[C@H](Cc2ccc(-c3ccccc3)cc2)NC(=O)[C@H](C(C)C)NC(=O)[C@H](Cc2c[nH]c3ccccc23)NC(=O)[C@H](CC(=O)O)NC(=O)[C@H](Cc2ccc(OCC(=O)O)cc2)NC(=O)[C@H](C(C)O)NC(=O)CSC[C@@H](C(=O)N(C)[C@@H](CC(N)=O)C(N)=O)NC(=O)[C@H](CO)NC(=O)[C@H](C(C)C)NC(=O)[C@H](CC2CCCCC2)NC(=O)[C@H](CCN)NC1=O` (stereo partly drawn) [Compound 2568] ({CH2CO}-[Thr(3ξ)]Y(Carboxymethyl)DWV[Bip]V[Orn][dL][Dab][Cha]VSC[NMeN]-NH2; thioether N-14): the IC50 came out at 67.1 nM.
